Measurements reported in patent publication US7687484B2, “Transporter enhanced corticosteroid activity” (priority 2006, dated 2010).
“Also recorded” adds a separate entry of the source. Read-outs that look alike come from different tables or passages of the source.

What was measured:
transcortin (CBG) = molecular target: T1, transcortin (CBG) (Homo sapiens, UniProt P08185); assay: Binding of corticosteroids to transcortin: 3H-cortisol competition in charcoal-treated diluted plasma
T1 construct: from tissue; host or cells: plasma from venous blood of healthy volunteers, charcoal-treated, diluted 100-fold
T1 sequence (P08185 23-405): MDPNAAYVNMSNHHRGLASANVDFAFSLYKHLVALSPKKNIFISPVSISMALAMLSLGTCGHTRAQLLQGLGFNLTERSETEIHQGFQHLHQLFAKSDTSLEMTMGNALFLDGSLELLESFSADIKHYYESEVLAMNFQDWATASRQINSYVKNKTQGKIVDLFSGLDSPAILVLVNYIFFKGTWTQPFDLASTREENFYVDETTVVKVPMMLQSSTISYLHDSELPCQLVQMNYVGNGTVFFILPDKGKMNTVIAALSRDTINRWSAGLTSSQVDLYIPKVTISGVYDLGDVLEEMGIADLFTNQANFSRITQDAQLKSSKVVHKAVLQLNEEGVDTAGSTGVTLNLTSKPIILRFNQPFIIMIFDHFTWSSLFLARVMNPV
Description: Experimental procedure: Venous blood was collected from healthy volunteers into heparin-containing tubes (5 Us/100 ml serum) and cells were separated from plasma by centrifugation (1500 g for 15 min). […] Charcoal-treated plasma was diluted 100-fold with binding buffer (10 mM Tris-HCl; 2 mM DTT (dithiotreitol); 1.5 mM EDTA; 0.02 M Na2MoO4; 10% Glycerol; pH 7.4) and was stored aliquoted at −80° C. […] The assay ingredients were mixed and the tubes were incubated for 1 hour on ice. At the end of the incubation, 0.2 ml of charcoal suspension (0.5% Norit A and 0.05% BSA) was added to each tube. The tubes were briefly agitated and incubated for an additional 10 min at 0° C. They were then centrifuged for 10 min at 15 000 g, and the same aliquots from the clear supernatants were quantitatively decanted into counting vials and combined with 3 ml of toluene-based scintillation fluid. […] Specific binding and IC50-values were calculated.

[1] = molecular target: T2, Corticosteroid Binding Globulin (CBG), transcortin (Homo sapiens, UniProt P08185); conditions: cited from earlier work; for Class: CBG binding activity class
T2 sequence (P08185 23-405): T1 sequence (P08185 23-405)

[2] = system: forearms of human volunteers; assay: Human vasoconstriction (blanching) testing; type: in vivo; design: key to Vasoconstriction activity (total score of 4 tests): sum of 4 tests, each 0 = normal skin to 4 = very intense pallor
Description: Solutions of LE, HC and PRN (0.1 or 1 mM) alone, or mixtures of LE and HC (0.1+0.1 mM, or 1+1 mM), or LE and PRN (0.1+0.1 mM, or 1+1 mM) were prepared with a vehicle containing absolute ethanol and propylene glycol (9:1). […] After evaporation of ethanol (20 min), the films were applied to the forearms of human volunteers for 4 hours. Subsequently, the vasoconstriction reaction was read and judged by the appearance of pallor at various time intervals after the removal of the discs and films. The grading scale was as follows: 0, normal skin; 1, slight pallor; 2, pallor with at least two corners outlined; 3, even pallor with a clear outlined of the application sites; 4, very intense pallor. Due to the relatively high variations in response between the volunteers, a total score of 4 tests at each time point was taken for the activity evaluation.

[3] = logP reported in literature; cited from earlier work
glucocorticoid receptor [4] = molecular target: T3, glucocorticoid receptor (Homo sapiens, UniProt P04150); conditions: relative to dexamethasone = 100; average of all values if multiple available; cited from earlier work
T3 sequence (P04150 1-777): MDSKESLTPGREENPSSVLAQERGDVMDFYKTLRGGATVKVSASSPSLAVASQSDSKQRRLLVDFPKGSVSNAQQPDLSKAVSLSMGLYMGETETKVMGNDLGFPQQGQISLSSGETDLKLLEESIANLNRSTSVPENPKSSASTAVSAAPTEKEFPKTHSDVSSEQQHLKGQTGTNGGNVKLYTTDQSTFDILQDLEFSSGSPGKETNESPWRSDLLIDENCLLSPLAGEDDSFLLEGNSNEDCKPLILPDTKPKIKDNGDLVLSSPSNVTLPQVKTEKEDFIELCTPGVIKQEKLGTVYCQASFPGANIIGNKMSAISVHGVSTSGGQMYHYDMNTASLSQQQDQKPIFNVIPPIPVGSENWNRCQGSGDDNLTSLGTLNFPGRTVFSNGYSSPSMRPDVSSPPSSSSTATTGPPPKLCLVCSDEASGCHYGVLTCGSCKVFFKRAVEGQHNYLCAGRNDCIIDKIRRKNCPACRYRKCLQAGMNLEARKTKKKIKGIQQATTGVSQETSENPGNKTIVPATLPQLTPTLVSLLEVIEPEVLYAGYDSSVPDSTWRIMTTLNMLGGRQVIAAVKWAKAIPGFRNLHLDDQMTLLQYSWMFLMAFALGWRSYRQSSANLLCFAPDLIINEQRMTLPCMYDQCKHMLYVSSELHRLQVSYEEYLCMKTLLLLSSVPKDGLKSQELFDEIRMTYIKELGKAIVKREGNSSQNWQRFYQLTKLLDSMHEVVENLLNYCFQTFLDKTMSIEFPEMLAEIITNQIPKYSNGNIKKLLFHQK

glucocorticoid receptor [5] = molecular target: T3, glucocorticoid receptor; assay: Relative binding affinity for the glucocorticoid receptor (GCR/GR); conditions: GRs were calculated from RBAs; read-out: GR Est. IC50
[6] = 3 nM 3H-cortisol, 1 hour on ice, plasma diluted 100-fold, read-out: IC50-values (nM) average ± SEM (n)
[7] = estimated, unpublished results Bodor, Kurucz 2006, read-out: CBG Est. IC50

| Structure (SMILES) | IC50 (transcortin (CBG); [6]) [nM] | IC50 (transcortin (CBG); [7]) [nM] | logP [3] | rBA (relative receptor binding affinity) (glucocorticoid receptor [4]) | further results |
| --- | --- | --- | --- | --- | --- |
| C[C@]12CCC(=O)C=C1CCC1C2[C@@H](O)C[C@@]2(C)C1CC[C@]2(O)C(=O)CO (stereo partly shown) [Hydrocortisone (cortisol), hydrocortisone] | 69 ± 8 | 70 | 1.61 | – | Class [1]: 1; Vasoconstriction activity (total score of 4 tests) ([2]; 0.1 mM, 2 hr after removal, 4 h application): 0; Vasoconstriction activity (total score of 4 tests) ([2]; 0.1 mM, 4 hr after removal): 0; Vasoconstriction activity (total score of 4 tests) ([2]; 0.1 mM, 6 hr after removal): 0; Vasoconstriction activity (total score of 4 tests) ([2]; 0.1 mM, 8 hr after removal): 0; Vasoconstriction activity (total score of 4 tests) ([2]; 0.1 mM, 10 hr after removal): 0; Vasoconstriction activity (total score of 4 tests) ([2]; 0.1 mM, 16 hr after removal): 0; Vasoconstriction activity (total score of 4 tests) ([2]; 0.1 mM, 18 hr after removal): 0; Vasoconstriction activity (total score of 4 tests) ([2]; 0.1 mM, 24 hr after removal): 0; Vasoconstriction activity (total score of 4 tests) ([2]; 1 mM, 2 hr after removal, 4 h application): 0; Vasoconstriction activity (total score of 4 tests) ([2]; 1 mM, 4 hr after removal): 0; Vasoconstriction activity (total score of 4 tests) ([2]; 1 mM, 6 hr after removal): 0; Vasoconstriction activity (total score of 4 tests) ([2]; 1 mM, 8 hr after removal): 0; Vasoconstriction activity (total score of 4 tests) ([2]; 1 mM, 10 hr after removal): 0; Vasoconstriction activity (total score of 4 tests) ([2]; 1 mM, 16 hr after removal): 0; Vasoconstriction activity (total score of 4 tests) ([2]; 1 mM, 18 hr after removal): 0; Vasoconstriction activity (total score of 4 tests) ([2]; 1 mM, 24 hr after removal): 0; Vasoconstriction activity alone (in words) ([2]; by itself, concentration range 0.1 to 1 mM, human skin, listed as HC): do not yield any detectable activity; also recorded: no activity |
| CCCC1O[C@@H]2C[C@H]3[C@@H]4CCC5=CC(=O)C=C[C@]5(C)[C@H]4[C@@H](O)C[C@]3(C)[C@]2(C(=O)CO)O1 (stereo partly shown) [Budesonide, 22R, Budesonide] | – | – | 3.24 | – | – |
| C[C@@H]1C[C@H]2[C@@H]3CCC4=CC(=O)C=C[C@]4(C)[C@@]3(Cl)[C@@H](O)C[C@]2(C)[C@@]1(O)C(=O)CCl [Mometasone] | – | – | – | 88 | – |
| C[C@]12CCC(=O)C=C1CCC1C2[C@@H](O)C[C@@]2(C)C1CC[C@]2(O)C(=O)O (stereo partly drawn) [Cortienic acid (CA) GYKI-24805, 11β,17α-dihydroxyandrost-4-en-3-one-17β-carboxylic acid] | 117 ± 49 | 120 | – | – | IC50 (glucocorticoid receptor [5]): > 1000 nM |
| C[C@H]1C[C@H]2[C@@H]3CCC4=CC(=O)C=C[C@]4(C)[C@@]3(F)[C@@H](O)C[C@]2(C)[C@@]1(O)C(=O)CO [Betamethasone] | – | – | 1.94 | – | – |
| CCC(=O)O[C@]1(C(=O)CCl)[C@@H](C)C[C@H]2[C@@H]3CCC4=CC(=O)C=C[C@]4(C)[C@@]3(F)[C@@H](O)C[C@@]21C [Clobetasol propionate] | – | – | 3.83 | 6300 | – |
| CC1(C)O[C@@H]2C[C@H]3[C@@H]4C[C@H](F)C5=CC(=O)C=C[C@]5(C)[C@H]4[C@@H](O)C[C@]3(C)[C@]2(C(=O)CO)O1 [Flunisolide] | – | – | 2.28 | 165 | – |
| COC(=O)[C@@]1(O)CCC2C3CCC4=CC(=O)C=C[C@]4(C)C3[C@@H](O)C[C@@]21C (stereo partly shown) [Δ1-CA-Me GYKI-24776, Δ^1-CA, methyl ester] | 31 ± 11 | 30 | – | – | IC50 (glucocorticoid receptor [5]): > 1000 nM |
| CCCC(=O)O[C@]1(C(=O)CO)CC[C@H]2[C@@H]3CCC4=CC(=O)CC[C@]4(C)[C@H]3[C@@H](O)C[C@@]21C [Hydrocortisone 17-butyrate] | – | – | – | 95 | – |
| CCC(=O)O[C@]1(C(=O)CO)CC[C@H]2[C@@H]3CCC4=CC(=O)CC[C@]4(C)[C@H]3[C@@H](O)C[C@@]21C [Hydrocortisone 17-propionate] | – | – | 2.70 | 79 | – |
| C[C@]12C[C@H](O)[C@H]3[C@@H](CCC4=CC(=O)CC[C@@]43C)[C@@H]1CC[C@@H]2C(=O)CO [Corticosterone] | – | – | 1.94 | 35 | Class [1]: 1; Log 1/K ([1]; CBG binding affinity, literature data): −7.881 |
| C[C@]12C=CC(=O)C=C1CCC1C2[C@@H](O)C[C@@]2(C)C1CC[C@]2(O)C(=O)O (stereo partly shown) [Δ1-CA GYKI-24762, Δ^1-cortienic acid] | 52 ± 10 | 50 | – | – | IC50 (glucocorticoid receptor [5]): > 1000 nM |
| CCOC(=O)[C@@]1(OC(=O)C(Cl)Cl)CC[C@H]2[C@@H]3CCC4=CC(=O)C=C[C@]4(C)[C@H]3[C@@H](O)C[C@@]21C [Etiprednol dicloacetate (BNP-166), Etiprednol dicloacetate] | 4500 ± 973 | – | – | 200 | – |
| CCC(=O)O[C@]1(C(=O)SCF)[C@H](C)C[C@H]2[C@@H]3C[C@H](F)C4=CC(=O)C=C[C@]4(C)[C@@]3(F)[C@@H](O)C[C@@]21C [Fluticasone propionate] | – | > 10000 | 4.20 | – | – |
| CC(=O)O[C@]1(C(=O)CO)CC[C@H]2[C@@H]3CCC4=CC(=O)CC[C@]4(C)[C@H]3[C@@H](O)C[C@@]21C [Hydrocortisone 17-acetate] | – | – | – | 41 | – |
